This note sets out measurements from patent US20250171417A1, “HETEROCYCLIC DERIVATIVE, AND COMPOSITION AND PHARMACEUTICAL USE THEREOF” (Xizang Haisco Pharmaceutical Co., Ltd., priority 2021, published 2025).

In data set [1] the target is T1, AR splice variant 7 (AR-V7) (Homo sapiens, UniProt P10275).
T1 construct: host or cells: 22RV1 prostate cancer cells
T1 sequence (P10275 1-644 isoform P10275-3): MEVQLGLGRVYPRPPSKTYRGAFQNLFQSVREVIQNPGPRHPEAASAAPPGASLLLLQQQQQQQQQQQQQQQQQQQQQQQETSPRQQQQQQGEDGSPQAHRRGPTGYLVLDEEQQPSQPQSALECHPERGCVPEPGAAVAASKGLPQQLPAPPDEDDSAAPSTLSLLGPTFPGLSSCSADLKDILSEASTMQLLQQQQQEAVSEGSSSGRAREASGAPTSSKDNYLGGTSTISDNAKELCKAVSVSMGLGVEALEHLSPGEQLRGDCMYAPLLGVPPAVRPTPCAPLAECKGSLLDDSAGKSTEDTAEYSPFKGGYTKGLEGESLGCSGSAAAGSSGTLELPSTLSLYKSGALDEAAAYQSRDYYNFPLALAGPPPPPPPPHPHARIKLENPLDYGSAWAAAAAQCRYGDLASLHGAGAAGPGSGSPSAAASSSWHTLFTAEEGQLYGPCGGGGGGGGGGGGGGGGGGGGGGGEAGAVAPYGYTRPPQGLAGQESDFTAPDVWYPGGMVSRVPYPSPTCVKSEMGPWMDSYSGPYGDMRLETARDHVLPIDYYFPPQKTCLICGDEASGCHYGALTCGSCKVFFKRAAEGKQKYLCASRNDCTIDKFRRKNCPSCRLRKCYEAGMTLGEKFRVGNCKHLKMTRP
The experiment in a line: Degradation experiment on AR splice variant 7 (AR-V7) in 22RV1 cells. As to conditions: 24 h. Type of data set: cell-based. Here is the method: Prostate cancer cells 22RV1 were purchased from ATCC, the cell medium was 1640+10% FBS, and the cells were cultured in an incubator at 37° C. under 5% CO2. On day 1, the cells in an exponential phase were collected. With a 1% css-FBS phenol red-free medium, the cell suspension was adjusted to a corresponding concentration and plated into a 6-well plate at 1 mL/well and 300000 cells/well. The next day, a 1% css-FBS phenol-free medium containing the compound to be tested was added, a 1% css-FBS phenol-free medium containing 0.2% DMSO was added to one well as DMSO vehicle control, and the 6-well plate was cultured in an incubator at 37° C. under 5% CO2. After 24 h, the cells were digested with pancreatin and collected into a 1.5 mL centrifuge tube. 15 μL of RIPA lysate (containing 1× protease inhibitor cocktail) was added to each well, and the cells were lysed on ice for 15 min and then centrifuged at 12000 g at 4° C.′ for 10 min. The supernatant protein samples were collected, and protein quantification was performed by a BCA method. AR-V7 was detected using fully automatic protein expression quantitative analysis, which involved diluting the protein to be tested to 2 mg/mL, 4 μL of the diluted protein samples were added to 1 μL of 5× Master Mix (provided in the kit), and the prepared samples were denatured at 95° C. for 5 min and placed on ice for use. The primary antibodies. AR V7 (CST, 19672S) and β-actin (CST, 3700), were diluted with Antibody Diluent II (provided in the kit) at a dilution ratio of 1:10 and 1:500, respectively. The secondary antibody was a mixed goat anti-mouse and goat anti-rabbit secondary antibody in a ratio of 1:1, and the color development solution was a mixed solution of Lumino-S and Peroxide in a ratio of 1:1. The prepared reagents were successively added to an assay plate according to instructions of the kit and detected on an instrument. Western blot band processing was performed using “Compass for SW”, a fully automatic protein expression quantitative analysis software, in which western blot bands were automatically simulated based on signal values. The degradation rate of AR-V7 (4) relative to vehicle control at different compound concentrations was calculated according to formula (4), wherein AR-V7compound was the relative peak area of AR-V7 in the treated group, and AR-V7solvent was the relative peak area of AR-V7 in the vehicle control group.
DC50 calculation: the compound concentration DC50 values at which the degradation rate of AR-V7 was 50% were calculated using Graphpad software and analyzed using log (inhibitor) vs. response-Variable slope (four parameters) function according to formula (4).

Data set [2] concerns Prostate cancer cells 22RV1. Kind of data set: Experiment on inhibiting 22RV1 cell proliferation (CellTiter-Glo, 7 days). The conditions noted are these: Homo sapiens, 168 h, 22RV1 cells, 7 days incubation, cells with nM printed beside the value, read-out: IC50 values for inhibition of 22RVI cells. Type of data set: cell-based. An outline of the steps: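 22RV1 cells at 2000/well in 1% charcoal-stripped-FBS phenol red-free medium, treated next day with compound for 7 days at 37 °C, 5% CO2. Viability by CellTiter-Glo luminescence; inhibition relative to DMSO vehicle, IC50 from dose-response fit.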

The nature of data set [3]: Pharmacokinetic test in rats. Type of data set: in vivo. The conditions noted are these: rat, plasma, po, male SD rats; for bioavailability: i.g. 5 mg/kg vs intravenous 2 mg/kg; for AUC(0-t): i.g. 5 mg/kg. As for the experimental part:
Test objective: In this experiment, a single dose of each test compound was administered to SD rats intravenously and intragastrically, and the concentrations of the test compounds in plasma of rats were measured to evaluate the pharmacokinetic characteristics of the test compounds in rats.
Experimental animals: male SD rats, 200-250 g, 6-8 weeks old, 6 rats/compound, purchased from Chengdu Ddossy Experimental Animals Co., Ltd.
Experimental method: on the day of the test, 6 SD rats were randomly grouped according to their body weight; the animals were fasted with water available for 12 to 14 hours one day before the administration of a test compound, and were fed 4 hours after the administration.
Sampling: Before and after the administration, 0.1 mL of blood samples were drawn from the orbits of the animals under isoflurane anesthesia, and placed in an EDTAK2 centrifuge tube. Centrifugation was carried out at 5000 rpm at 4° C. for 10 min, and the plasma was collected.
Time points for plasma collection in IV&PO group: 0, 5 min, 15 min, 30 min, 1 h, 2 h, 4 h, 6 h, 8 h, and 24 h.
Before analysis and detection, all samples were stored at −60° C. The samples were analyzed quantitatively by LC-MS/MS.

With `CC(C)(C(=O)Nc1ccc(C(F)(F)F)cc1Cl)n1cc(C#CC2CN(c3ccc4c(c3)C(=O)N(C3CCC(=O)NC3=O)C4=O)C2)cn1` (centres unmarked) [Compound 11, N-(2-chloro-4-(trifluoromethyl)phenyl)-2-(4-((1-(2-(2,6-dioxopiperidin-3-yl)-1,3-dioxoisoindolin-5-yl)azetidin-3-yl)ethynyl)-1H-pyrazol-1-yl)-2-methylpropanamide], the DC50 in data set [1] was less than 500 nM. Also, the 50% inhibitory concentration (IC50) in data set [2] was less than 50 nM. Besides, in data set [3], the bioavailability was 90.9 ± 2.4% and the AUC(0-t) turned out to be 16000 ± 431 ng·h/mL.
For `O=C1CCC(N2C(=O)c3ccc(N4CC(C#Cc5cnn(C6(C(=O)Nc7ccc(C(F)(F)F)cc7Cl)CCC6)c5)C4)cc3C2=O)C(=O)N1` (centres unmarked) [Compound 14, N-(2-chloro-4-(trifluoromethyl)phenyl)-1-(4-((1-(2-(2,6-dioxopiperidin-3-yl)-1,3-dioxoisoindolin-5-yl)azetidin-3-yl)ethynyl)-1H-pyrazol-1-yl)cyclobutane-1-carboxamide], the DC50 in data set [1] is less than 500 nM. In addition, the IC50 in data set [2] was less than 50 nM.
Molecule `CC(C)(C(=O)Nc1ccc(C(F)(F)F)cc1Cl)n1cc(C#CC2CN(c3cc4c(cc3F)C(=O)N(C3CCC(=O)NC3=O)C4=O)C2)cn1` (centres unmarked) [Compound 15] came in with a DC50 in data set [1] of less than 500 nM. Further, the IC50 in data set [2] was less than 100 nM. Further, in data set [3], the bioavailability was found to be 73.2 ± 10% and the AUC(0-t) came to 10200 ± 1460 ng·h/mL.
Regarding `CC(C)(C(=O)Nc1ccc(C#N)c2ccccc12)n1cc(C#CC2CN(c3ccc4c(c3)C(=O)N(C3CCC(=O)NC3=O)C4=O)C2)cn1` (centres unmarked) [Compound 21, N-(4-cyanonaphthalen-1-yl)-2-(4-((1-(2-(2,6-dioxopiperidin-3-yl)-1,3-dioxoisoindolin-5-yl)azetidin-3-yl)ethynyl)-1H-pyrazol-1-yl)-2-methylpropanamide], the DC50 in data set [1] was less than 500 nM. The IC50 in data set [2] is less than 50 nM. In data set [3], the bioavailability is 69.1 ± 12% and the AUC(0-t) was determined as 15200 ± 2610 ng·h/mL.
`CC(C)(C(=O)Nc1ccc(C(F)(F)F)cc1Br)n1cc(C#CC2CN(c3ccc4c(c3)C(=O)N(C3CCC(=O)NC3=O)C4=O)C2)cn1` (centres unmarked) [Compound 28, N-(2-bromo-4-(trifluoromethyl)phenyl)-2-(4-((1-(2-(2,6-dioxopiperidin-3-yl)-1,3-dioxoisoindolin-5-yl)azetidin-3-yl)ethynyl)-1H-pyrazol-1-yl)-2-methylpropanamide] had a DC50 in data set [1] of less than 500 nM. The IC50 in data set [2] was less than 50 nM.
`CC(C)(C(=O)Nc1ccc(C#N)c(C2CC2)c1)n1cc(C#CC2CN(c3ccc4c(c3)C(=O)N(C3CCC(=O)NC3=O)C4=O)C2)cn1` (centres unmarked) [Compound 29, N-(4-cyano-3-cyclopropylphenyl)-2-(4-((1-(2-(2,6-dioxopiperidin-3-yl)-1,3-dioxoisoindolin-5-yl)azetidin-3-yl)ethynyl)-1H-pyrazol-1-yl)-2-methylpropanamide]: the DC50 in data set [1] is less than 500 nM. Further, the IC50 in data set [2] is less than 100 nM. The same molecule displayed an AUC(0-t) in data set [3] of 48700 ± 7060 ng·h/mL.
`CC(C)(C(=O)Nc1ccc(C(F)(F)F)cc1C1CC1)n1cc(C#CC2CN(c3ccc4c(c3)C(=O)N(C3CCC(=O)NC3=O)C4=O)C2)cn1` (centres unmarked) [Compound 30, N-(2-cyclopropyl-4-(trifluoromethyl)phenyl)-2-(4-((1-(2-(2,6-dioxopiperidin-3-yl)-1,3-dioxoisoindolin-5-yl)azetidin-3-yl)ethynyl)-1H-pyrazol-1-yl)-2-methylpropanamide]: the DC50 in data set [1] is less than 500 nM. Besides, the IC50 in data set [2] is less than 50 nM. In data set [3], this molecule yielded a bioavailability of 98.1 ± 6.6% and an AUC(0-t) of 22500 ± 1510 ng·h/mL.
The molecule `CC(C)(C(=O)Nc1ccc(C#N)cc1C1CC1)n1cc(C#CC2CN(c3ccc4c(c3)C(=O)N(C3CCC(=O)NC3=O)C4=O)C2)cn1` (centres unmarked) [Compound 39, N-(4-cyano-2-cyclopropylphenyl)-2-(4-((1-(2-(2,6-dioxopiperidin-3-yl)-1,3-dioxoisoindolin-5-yl)azetidin-3-yl)ethynyl)-1H-pyrazol-1-yl)-2-methylpropanamide] gave a DC50 in data set [1] of less than 500 nM. The IC50 in data set [2] is less than 50 nM.
In data set [1], `CC(C)(C(=O)Nc1ccc(C#N)c2c1CCCC2)n1cc(C#CC2CN(c3ccc4c(c3)C(=O)N(C3CCC(=O)NC3=O)C4=O)C2)cn1` (centres unmarked) [Compound 56, N-(4-cyano-5,6,7,8-tetrahydronaphthalen-1-yl)-2-(4-((1-(2-(2,6-dioxopiperidin-3-yl)-1,3-dioxoisoindolin-5-yl)azetidin-3-yl)ethynyl)-1H-pyrazol-1-yl)-2-methylpropanamide] gave a DC50 of less than 500 nM. In addition, in data set [2], the IC50 was less than 50 nM.
`CC#Cc1cc(C(F)(F)F)ccc1NC(=O)C(C)(C)n1cc(C#CC2CN(c3ccc4c(c3)C(=O)N(C3CCC(=O)NC3=O)C4=O)C2)cn1` (centres unmarked) [Compound 118, 2-(4-((1-(2-(2,6-dioxopiperidin-3-yl)-1,3-dioxoisoindolin-5-yl)azetidin-3-yl)ethynyl)-1H-pyrazol-1-yl)-2-methyl-N-(2-(prop-1-yn-1-yl)-4-(trifluoromethyl)phenyl) propanamide] came in with a DC50 in data set [1] of less than 500 nM. Also, the IC50 in data set [2] is less than 50 nM. Moreover, in data set [3], the bioavailability was determined as 52.4 ± 3.1% and the AUC(0-t) came out at 14000 ± 816 ng·h/mL.
Turning to `N#Cc1nn(C2(C(=O)Nc3ccc(C(F)(F)F)cc3Cl)CCC2)cc1C#CC1CN(c2ccc3c(c2)C(=O)N(C2CCC(=O)NC2=O)C3=O)C1` (centres unmarked) [Compound 160, N-(2-chloro-4-(trifluoromethyl)phenyl)-1-(3-cyano-4-((1-(2-(2,6-dioxopiperidin-3-yl)-1,3-dioxoisoindolin-5-yl)azetidin-3-yl)ethynyl)-1H-pyrazol-1-yl)cyclobutane-1-carboxamide], the DC50 in data set [1] is less than 500 nM. Moreover, in data set [2], the IC50 is less than 50 nM.
The like results for `Cc1nn(C2(C(=O)Nc3ccc(C(F)(F)F)cc3Cl)CCC2)cc1C#CC1CN(c2ccc3c(c2)C(=O)N(C2CCC(=O)NC2=O)C3=O)C1` (centres unmarked) [Compound 164, N-(2-chloro-4-(trifluoromethyl)phenyl)-1-(4-((1-(2-(2,6-dioxopiperidin-3-yl)-1,3-dioxoisoindolin-5-yl)azetidin-3-yl)ethynyl)-3-methyl-1H-pyrazol-1-yl)cyclobutane-1-carboxamide] were, in that order, less than 500 nM and less than 50 nM.
